The test system of this assay is GBA mutant human fibroblasts GM008760. In words: Glucosylceramide lowering assay. It is filed as cell-based. Particulars: Homo sapiens, Fibroblast, 96 h; 10 μM test compound, 4 days culture; GlcCer (C16:0)/Cer (C16:0) molar ratio of test compound group relative to DMSO control group x100; smaller value = glucosylceramide lowering. As to the method:
Glucosylceramide Lowering Assay
Using GBA mutant human fibroblasts containing mutated glucosylceramidase, the effect of test compounds on glucosylceramide reduction was evaluated.
GBA mutant human fibroblasts GM008760 (Coriel Institute) were seeded in a 96-well multiwell plate at a density of 5,000 cells/100 μL culture solution/well. GlutaMAX (Thermo Fishcer Scientific), penicillin-streptomycin, and Minimum Essential Media (Thermo Fishcer Scientific) supplemented with 15% fetal bovine serum were used as a culture solution. After culturing for 2 days, a 10 mM DMSO solution of the test compound diluted with the culture solution was added to a 96-well plate by 100 μL to adjust a final test compound concentration to 10 μM. After culturing the cells for 4 days in the presence of the test compound, the culture solution was removed, and the cells adhered to the 96-well plate were washed with a phosphate buffer (ThermoFisher Scientific, product number 14190-144). A solvent composed of 50% ethanol and 50% isopropanol was added to the 96-well plate by 100 μL, and the intracellular lipids were dissolved by pipetting. A solution prepared by dissolving N-Octadecanoyl-D35-psychosine (50 ng/mL, Matreya LLC Inc.) as an internal standard in 50% ethanol and 50% isopropanol was added to the sample in an equal volume, and 2.5 μL of the centrifuged supernatant was used as the test compound group.
In the same manner as above, a control group was prepared by using DMSO instead of the 10 mM DMSO solution of the test compound.
For the test compound group and the control group, molar concentrations of glucosylceramide [GlcCer (C16:0)] and ceramide [Cer (C16:0)] were quantified using Rapidfire-MS/MS (API-5000, Turbo-ESI, SRM), and the glucosylceramide lowering effect of the test compound group relative to the control group was evaluated by the following formula. (GlcCer/Cer of test compound group)/(GlcCer/Cer of control group)×100 wherein GlcCer/Cer is the ratio of the molar concentration of glucosylceramide to that of ceramide.
In this test, when the numerical value obtained by the above calculation formula is small, glucosylceramide is metabolized to ceramide by the test compound, or the synthesis of glucosylceramide from ceramide is inhibited by the test compound, that is, it can be said that the test compound has a glucosylceramide lowering effect.
With `Cc1cn(C)c(=O)c2c(C(=O)N3CCC(Oc4cccc(Cl)c4)CC3)cn(C)c12` [Example 188, 3-((4-(3-chlorophenoxy)piperidin-1-yl)carbonyl)-1,5,7-trimethyl-1,5-dihydro-4H-pyrrolo[3,2-c]pyridin-4-one], the activity at 10 µM was found to be 65%. Regarding `Cc1cn(C)c(=O)c2c(C(=O)N3CCC(Oc4ccc(Cl)cc4)CC3)cn(C)c12` [Example 189, 3-((4-(4-chlorophenoxy)piperidin-1-yl)carbonyl)-1,5,7-trimethyl-1,5-dihydro-4H-pyrrolo[3,2-c]pyridin-4-one], the activity at 10 µM worked out at 36%. Consider `Cc1cn(C)c(=O)c2c(C(=O)N3CCC(Oc4ccc(C(F)(F)F)cc4)CC3)cn(C)c12` [Example 190, 1,5,7-trimethyl-3-((4-(4-(trifluoromethyl)phenoxy)piperidin-1-yl)carbonyl)-1,5-dihydro-4H-pyrrolo[3,2-c]pyridin-4-one], for which the activity at 10 µM is 29%.

For the compound `Cc1cn(C)c(=O)c2c(C(=O)N3C[C@H]4C[C@@]4(c4ccc(Cl)c(Cl)c4)C3)cn(C)c12` [Example 205, 3-(((1R,5S)-1-(3,4-dichlorophenyl)-3-azabicyclo[3.1.0]hex-3-yl)carbonyl)-1,5,7-trimethyl-1,5-dihydro-4H-pyrrolo[3,2-c]pyridin-4-one], the activity at 10 µM was determined as 62%. In the case of `Cc1cn(C)c(=O)c2c(C(=O)N3C[C@@H]4C[C@]4(c4ccc(Cl)c(Cl)c4)C3)cn(C)c12` [Example 206, 3-(((1S,5R)-1-(3,4-dichlorophenyl)-3-azabicyclo[3.1.0]hex-3-yl)carbonyl)-1,5,7-trimethyl-1,5-dihydro-4H-pyrrolo[3,2-c]pyridin-4-one], the activity at 10 µM came to 49%. The value for `Cc1cn(C)c(=O)c2c(C(=O)NCc3ccc(-c4ccc(Cl)cc4)s3)cn(C)c12` [Example 217, N-((5-(4-chlorophenyl)-2-thienyl)methyl)-1,5,7-trimethyl-4-oxo-4,5-dihydro-1H-pyrrolo[3,2-c]pyridine-3-carboxamide] was 64%; that for `Cc1cn(C)c(=O)c2c(C(=O)NC(C)(C)c3ccccc3)cn(C)c12` [Example 219, 1,5,7-trimethyl-4-oxo-N-(2-phenylpropan-2-yl)-4,5-dihydro-1H-pyrrolo[3,2-c]pyridine-3-carboxamide] was 63%. For `Cc1cn(C)c(=O)c2c(C(=O)NC(C)(C)c3ccc(Cl)cc3)cn(C)c12` [Example 221, N-(2-(4-chlorophenyl)propan-2-yl)-1,5,7-trimethyl-4-oxo-4,5-dihydro-1H-pyrrolo[3,2-c]pyridine-3-carboxamide], the activity at 10 µM is 44%. The result for `Cc1cn(C)c(=O)c2c(C(=O)NC3(c4cccc(Cl)c4)CCC3)cn(C)c12` [Example 227, N-(1-(3-chlorophenyl)cyclobutyl)-1,5,7-trimethyl-4-oxo-4,5-dihydro-1H-pyrrolo[3,2-c]pyridine-3-carboxamide] reads 59%. The result for `Cc1cn(C)c(=O)c2c(C(=O)NC3(c4ccc(Cl)cc4)CCC3)cn(C)c12` [Example 228, N-(1-(4-chlorophenyl)cyclobutyl)-1,5,7-trimethyl-4-oxo-4,5-dihydro-1H-pyrrolo[3,2-c]pyridine-3-carboxamide] reads 43%; that for `Cc1cn(C)c(=O)c2c(C(=O)Nc3cccc(OCc4ccccc4)c3)cn(C)c12` [Example 231, N-(3-(benzyloxy)phenyl)-1,5,7-trimethyl-4-oxo-4,5-dihydro-1H-pyrrolo[3,2-c]pyridine-3-carboxamide], 59%. The result for `Cc1cn(C)c(=O)c2c(C(=O)N3CCC(c4ccc(Cl)cc4)CC3)cn(C)c12` [Example 258, 3-((4-(4-chlorophenyl)piperidin-1-yl)carbonyl)-1,5,7-trimethyl-1,5-dihydro-4H-pyrrolo[3,2-c]pyridin-4-one] reads 64%; that for `Cc1cn(C)c(=O)c2c(C(=O)N3CC4CC4(c4ccc5ccccc5c4)C3)cn(C)c12` (stereo not shown) [Example 261, 1,5,7-trimethyl-3-((1-(2-naphthyl)-3-azabicyclo[3.1.0]hex-3-yl)carbonyl)-1,5-dihydro-4H-pyrrolo[3,2-c]pyridin-4-one], 65%.

The record behind these values is patent publication US11459325B2, “Heterocyclic compound” (Takeda Pharmaceutical Company Limited, priority 2018, dated 2022).
